In US9725460B2, “Oridonin analogs, compositions, and methods related thereto” (THE BOARD OF REGENTS OF THE UNIVERSITY OF TEXAS SYSTEM, priority 2013, dated 2017):
Where two headings read alike, the source gives them in different places.

Key:
Conditions in all cases: Homo sapiens
MDA-MB-231 = experiment: MTT cancer cell proliferation assay, MDA-MB-231; format: cell-based, human
Method: (§1) In Vitro Determination of Effects of Synthesized Diterpenoids on Cancer Cell Proliferation. Breast cancer cell lines MCF-7, MDA-MB-231, […] and MCF/ADR were seeded in 96-well plates at a density of 1×10^4 cells/well and treated with DMSO and 0.01, 0.1, 1, 5, 10, and 100 μM of individual compound for 48 h, and then 20 μL of 3-(4,5-dimethylthiazol-2-yl)-2,5-diphenyltetrazolium bromide (MTT) (5 mg/mL in PBS) was added to each well and further incubated for another 4 h. Then MTT solution was removed, and 150 μL of DMSO was added to each well. Absorbance of all wells was determined by measuring OD at 550 nm after a 10 min incubation on a 96-well GlowMaxate absorbance reader (Promega, Madison, Wis.). Each individual compound was tested in quadruplicate wells for each concentration.
(§2) The growth inhibitory effects of the newly generated pyran-fused diterpenoids were evaluated in four breast cancer cell lines MCF-7 (ER-positive), MDAMB-231 (ER-negative and triple-negative), MDA-MB-468 (ER-negative and triple-negative) as well as MCF-7/ADR (adriamycin-resistant) using MTT assays as described in the Experimental Section.

MCF-7 = experiment: MTT cancer cell proliferation assay, MCF-7; format: cell-based, human
Method: as §1, §2

AsPC1 = experiment: Cancer cell proliferation assay, AsPC1; format: cell-based
Method: (§3) In Vitro Determination of Effects of Synthesized Diterpenoids on Cancer Cell Proliferation. […] Then MTT solution was removed, and 150 μL of DMSO was added to each well. Absorbance of all wells was determined by measuring OD at 550 nm after a 10 min incubation on a 96-well GlowMaxate absorbance reader (Promega, Madison, Wis.). Each individual compound was tested in quadruplicate wells for each concentration.

Panc-1 = experiment: Cancer cell proliferation assay, Panc-1; format: cell-based
Method: as §3

[1] = MDA-MB-231, Table 2a, A-ring modified analogues, read-out: IC50 (μM) MDA-MB-231
[2] = MCF7, Table 2a, A-ring modified analogues, read-out: IC50 (μM) MCF-7
[3] = ASPC1, Table 2a, A-ring modified analogues, read-out: IC50 (μM) AsPC1
[4] = PANC-1, Table 2a, A-ring modified analogues, read-out: IC50 (μM) Panc-1
[5] = MDA-MB-231, read-out: IC50 (μM) MDA-MB-231
[6] = MCF7, read-out: IC50 (μM) MCF-7
[7] = ASPC1, read-out: IC50 (μM) AsPC1
[8] = PANC-1, read-out: IC50 (μM) Panc-1
[9] = MDA-MB-231, read-out: Antiproliferative effect MDA-MB-231 (IC50)
[10] = MCF7, read-out: Antiproliferative effect MCF-7 (IC50)
[11] = MDA-MB-231, Table 1b, triazole substituted analogues, mean of three experiments, read-out: IC50 (μM) MDA-MB-231
[12] = MCF7, Table 1b, triazole substituted analogues, mean of three experiments, read-out: IC50 (μM) MCF-7

IC50 (MDA-MB-231; [11]) [µM] | IC50 (MCF-7; [12]) [µM] | Structure (SMILES) | IC50 (MDA-MB-231; [5]) [µM] | IC50 (MCF-7; [6]) [µM] | IC50 (AsPC1; [7]) [µM] | IC50 (Panc-1; [8]) [µM] | other results
– | – | C=C1C(=O)[C@@]23[C@@H]4OC(C)(C)OC25OC[C@]2(C=CCC(C)(C)[C@H]2[C@@H]5O)[C@@H]3CC[C@@H]14 [CYD-6-75, (3S,3aR,3a^1R,6aR,7S,7aR,11aR,11bS)-7-hydroxy-5,5,8,8-tetramethyl-15-methylene-2,3,3a,7,7a,8,9,11b-octahydro-1H-6a,11a-(epoxymethano)-3,3a^1-ethanophenanthro[1,10-de][1,3]dioxin-14-one] | – | – | – | – | IC50 (MDA-MB-231; [1]): 3.95 µM; IC50 (MCF-7; [2]): 0.95 µM; IC50 (AsPC1; [3]): 6.78 µM; IC50 (Panc-1; [4]): 7.25 µM
– | – | C=C1C(=O)[C@]23[C@H](O)[C@H]1CC[C@H]2[C@]12C=CCC(C)(C)[C@H]1[C@H](O)[C@@]3(O)OC2 [CYD-6-82, (4aR,5S,6S,6aR,9S,11aS,11bR,14R)-5,6,14-trihydroxy-4,4-dimethyl-8-methylene-4,4a,5,6,9,10,11,11a-octahydro-3H-6,11b-(epoxymethano)-6a,9-methanocyclohepta[a]naphthalen-7(8H)-one] | 3.9 | 0.79 | 1.09 | 1.19 | –
– | – | C=C1C(=O)[C@]23[C@H](O)[C@H]1CC[C@H]2[C@]12C=CC(=O)C(C)(C)[C@H]1[C@H](O)[C@@]3(O)OC2 [CYD-6-93, (4aS,5S,6S,6aR,9S,11aS,11bR,14R)-5,6,14-trihydroxy-4,4-dimethyl-8-methylene-4,4a,5,6,9,10,11,11a-octahydro-3H-6,11b-(epoxymethano)-6a,9-methanocyclohepta[a]naphthalene-3,7(8H)-dione] | 10.3 | 0.71 | 10.2 | 9.67 | IC50 (MDA-MB-231; [9]): 9.39 ± 0.48 µM; IC50 (MCF-7; [10]): 3.48 ± 2.16 µM
– | – | C=C1C(=O)[C@@]23C(=O)[C@@H](O)[C@@H]4C(C)(C)[C@@H]5OC[C@]4(C(=O)/C5=C\O)[C@@H]2CC[C@@H]1[C@H]3O [CYD-7-5] | > 10 | > 10 | > 10 | > 10 | IC50 (MDA-MB-231; [9]): > 30 µM; IC50 (MCF-7; [10]): > 30 µM
– | – | C=C1C(=O)[C@]23[C@H](O)[C@H]1CC[C@H]2[C@@]12COC3(O)[C@@H](O)[C@@H]1C(C)(C)CC13CC[C@]4(CC(C)(C)[C@H]5[C@H](O)[C@]6(O)OC[C@]5(C4=O)[C@@H]4CC[C@H]5C(=C)C(=O)[C@]46[C@@H]5O)OC12O3 (stereo partly drawn) [CYD-6-39, (2R,4aR,4a′R,5′S,6aR,6′S,6a′R,7S,8S,8aR,9′S,11S,11a′S,11b′S,13aS,13bS,13cR,14′R,17R)-5′,6′,7,8,14′,17-hexahydroxy-4′,4′,6,6-tetramethyl-8′,10-dimethylenehexadecahydro-3H-spiro[4a,13c-epoxy-8,13b-(epoxymethano)-8a,11-methanocyclohepta[3,4]benzo[1,2-h]chromene-2,2′-6,11b-(epoxymethano)-6a,9-methanocyclohepta[a]naphthalene]-1′,7′,9(3′H,4H,5H,8′H,10H)-trione] | – | – | – | – | IC50 (MDA-MB-231; [1]): > 10 µM; IC50 (MCF-7; [2]): > 10 µM; IC50 (AsPC1; [3]): 104 µM; IC50 (Panc-1; [4]): > 10 µM
1.1 | 2 | C=C1C(=O)[C@@]23[C@@H]4OC(C)(C)OC25OC[C@]2([C@H](O)[C@@H](n6cc(-c7ccc(C(C)(C)C)cc7)nn6)CC(C)(C)[C@H]2[C@@H]5O)[C@@H]3CC[C@@H]14 [CYD-8-3] | – | – | – | – | –
3.5 | 1.9 | C=C1C(=O)[C@]23[C@H](O)[C@H]1CC[C@H]2[C@@]12COC3(O)[C@@H](O)[C@@H]1C(C)(C)C[C@H](n1cc(-c3ccc(C(C)(C)C)cc3)nn1)[C@H]2O [CYD-8-5] | – | – | – | – | –
– | – | C=C1C(=O)[C@@]23[C@@H]4OC(C)(C)OC25OC[C@]2(C(=O)/C(=C\N(C)C)CC(C)(C)[C@H]2[C@@H]5O)[C@@H]3CC[C@@H]14 [CYD-6-77, (3S,3aR,3a^1R,6aR,7S,7aR,11aS,11bS,Z)-10-((dimethylamino)methylene)-7-hydroxy-5,5,8,8-tetramethyl-15-methyleneoctahydro-1H-6a,11a-(epoxymethano)-3,3a^1-ethanophenanthro[1,10-de][1,3]dioxine-11,14(2H)-dione] | 165 | 9.07 | 11.8 | > 10 | –
– | – | C=C1C(=O)[C@@]23C(=O)[C@@H](O)[C@@H]4C(C)(C)[C@@H]5OC[C@]4(C(=O)/C5=C/OC)[C@@H]2CC[C@@H]1[C@H]3O [CYD-7-13] | – | – | – | – | IC50 (MDA-MB-231; MDA-MB-231, Table 1c, dienone analogues, mean ± SE of three experiments, read-out: Antiproliferative effect MDA-MB-231 (IC50)): > 30 µM; IC50 (MCF-7; MCF7, Table 1c, dienone analogues, mean ± SE of three experiments, read-out: Antiproliferative effect MCF-7 (IC50)): 10.2 ± 3.07 µM
– | – | C=C1C(=O)[C@]23[C@H](O)[C@H]1CC[C@H]2[C@@]12COC3(O)[C@@H](O)[C@@H]1C(C)(C)CC1=C2O[C@]2(CC1)CC(C)(C)[C@H]1[C@H](O)[C@]3(O)OC[C@]1(C2=O)[C@@H]1CC[C@H]2C(=C)C(=O)[C@]13[C@@H]2O [CYD-5-40-2, (2R,4aR,5S,6S,6aR,6a′R,7′S,8′S,8a′R,9S,11aS,11bS,11′S,13a′S,13b′S,14R,16′R)-5,6,7′,8′,14,16′-hexahydroxy-4,4,6′,6′-tetramethyl-8,10′-dimethylene-4,4a,5,6,6′,6a′,7′,8′,9,10,11,11a,11′,12′,13′,13a′-hexadecahydro-3′H-spiro[6,11b-(epoxymethano)-6a,9-methanocyclohepta[a]naphthalene-2,2′-8,13b-(epoxymethano)-8a,11-methanocyclohepta[3,4]benzo[1,2-h]chromene]-1,7,9′(3H,4′H,5′H,8H,10′H)-trione] | 9.64 | 4.82 | 10.2 | 8.07 | –
– | – | C=C1C(=O)[C@@]23[C@@H]4OC(C)(C)OC25OC[C@]2(C=C[C@H](O)C(C)(C)[C@H]2[C@@H]5O)[C@@H]3CC[C@@H]14 [CYD-6-81, (3S,3aR,3a^1R,6aR,7S,7aS,9S,11aR,11bS)-7,9-dihydroxy-5,5,8,8-tetramethyl-15-methylene-2,3,3a,7,7a,8,9,11b-octahydro-1H-6a,11a-(epoxymethano)-3,3a^1-ethanophenanthro[1,10-de][1,3]dioxin-14-one] | – | – | – | – | IC50 (MDA-MB-231; [1]): 10.5 µM; IC50 (MCF-7; [2]): 2.56 µM; IC50 (AsPC1; [3]): > 10 µM; IC50 (Panc-1; [4]): 5.24 µM
1.8 | 2.3 | C=C1C(=O)[C@]23[C@H](O)[C@H]1CC[C@H]2[C@]12C=C[C@@H](n4cc(-c5ccccc5)nn4)C(C)(C)[C@H]1[C@H](O)C3(O)OC2 [CYD-7-82] | – | – | – | – | –
– | – | C=C1C(=O)[C@]23[C@H](O)[C@H]1CC[C@H]2[C@]12C=C[C@H](O)C(C)(C)[C@H]1[C@H](O)[C@@]3(O)OC2 [CYD-6-90, (3S,4aS,5S,6S,6aR,9S,11aS,11bR,14R)-3,5,6,14-tetrahydroxy-4,4-dimethyl-8-methylene-4,4a,5,6,9,10,11,11a-octahydro-3H-6,11b-(epoxymethano)-6a,9-methanocyclohepta[a]naphthalen-7(8H)-one] | – | – | – | – | IC50 (MDA-MB-231; [1]): 26.1 µM; IC50 (MCF-7; [2]): 1.21 µM; IC50 (AsPC1; [3]): > 10 µM; IC50 (Panc-1; [4]): > 10 µM
0.48 | 0.38 | C=C1C(=O)[C@@]23[C@@H]4OC(C)(C)OC25OC[C@]2([C@@H](n6cc(-c7ccccc7)nn6)C=CC(C)(C)[C@H]2[C@@H]5O)[C@@H]3CC[C@@H]14 [CYD-7-86] | – | – | – | – | –
1.8 | 2.1 | C=C1C(=O)[C@]23[C@H](O)[C@H]1CC[C@H]2[C@@]12COC3(O)[C@@H](O)[C@@H]1C(C)(C)C=C[C@@H]2n1cc(-c2ccccc2)nn1 [CYD-7-90] | – | – | – | – | –
